Data set [1] is described as follows: Body weight, food/water intake and adverse effects in modified high-fat diet (HFD) obese mice. Type of data set: in vivo, C57B1/6J mice. The text has this: In order to assess the in vivo efficacy of Compound 14-3, a preferred embodiment of the compound of the invention, in treating and ameliorating obesity and related diseases like the metabolic syndrome, a previously used modified high-fat diet (HFD) was employed to induce obesity and severe fatty liver disease in mice (Derdak et al. J of Hepatology 2013; 58(4):785-91).
Five-week-old male, C57B1/6J mice (12-18 per group, Jackson Laboratory, Bar Harbor, ME) were fed ad libitum with a modified high-fat or control diet (Bioserv, Frenchtown, NJ) for 15 weeks. […] We had verified the efficacy of this diet to induce obesity in various pilot studies. At the end of the 15-week long feeding regimen, this diet caused substantial weight gain in these mice.
After 15 weeks on the modified HFD, the mice were put on a Compound 14-3 (or control vehicle) dosing regimen, in which the introductory 5 mg/kg (p.o., t.i.w. for the first 3 weeks) dose was followed by the administration of 10 mg/kg (p.o., t.i.w. for an additional 5 weeks) therapeutic dose. During the course of the drug treatment, the animals were monitored daily for changes in body weight, food/water intake, and any adverse effects.

Another data set deals with leptin. As to the kind of experiment: Serum leptin (ELISA). Type of data set: in vivo. The following applies: HFD-fed mice, FIG. 7C. The text has this: Since crosstalk between leptin and FGF21 has been proposed in connection with the anti-obesity effects of FGF21 and a suppressive effect of exogenous FGF21 on circulating leptin levels has been previously observed in non-human primates, we also measured serum leptin levels using a commercially available ELISA kit. As expected, changes in fat content in the Compound 14-3-treated HFD group were followed by decrease in serum levels of fat-derived ‘satiety’ hormone leptin, indicating improved leptin resistance resulting from treatment using a compound of the invention (FIG. 7C). Thus, lower circulation levels of leptin were most likely due to drug-induced reductions in the masses of fat depos. This finding can explain decrease in POMC gene expression in the hypothalamus, as leptin is capable to directly modulate hypothalamic melanocortin system by changing the activity of POMC neurons.
On the technique in general: In an ELISA, binding on a coated surface is turned into a signal by an enzyme label.

Data set [2] in a line: Fat pad weights at euthanasia (body composition). In kind it is in vivo. The following applies: HFD-fed mice at euthanasia. The text has this: In agreement with effects of Compound 14-3 seen in the above examples, favorable changes in the body composition of Compound 14-3-treated and HFD-fed mice were also observed at the time of euthanasia through gross examination.
The former anatomical site represents visceral fat depos, while the latter belongs to subcutaneous fat depo from the perspective of human health. Both of these changes were considered very substantial and beneficial in the anti-obesity effect profile of the compound of the invention.

The subject of data set [3] is intestinal fat absorption. The data set can be described thus: Fecal triglyceride content (biochemical kit) in HFD-fed mice. Type of data set: in vivo. The following applies: 5th week of treatment, vs vehicle, FIG. 2A. The protocol:
Referring to FIG. 2A, the fecal triglyceride content was assessed using a standard biochemical kit (Biovision, Mountain View, CA). Fecal samples were collected on the 5th week of the treatment over the course of three days. The fecal triglyceride content was normalized to fecal mass. […] Therefore, this mechanism cannot explain the observed significant weight loss in the drug-treated mice.

Setting [4] is: mice, 5 then 10 mg/kg p.o. t.i.w.

For the compound `CCN(CC)CCNC(=O)c1c(C)[nH]c(/C=C2\C(=O)Nc3ccc(-c4csc(-c5ccccc5)n4)cc32)c1C` [Compound 14-3], the “daily normalized caloric (food) intake” value in data set [1] (HFD-fed mice during treatment, FIG. 1C) is “not linked to decreased food intake”. Further, in data set [1] (HFD-fed mice during treatment, FIG. 1D), the “daily normalized water intake” value is “not linked to decreased”. The “change in body weight during treatment” value in data set [1] (HFD-fed mice, 5 mg/kg p.o. t.i.w. 3 weeks then 10 mg/kg p.o. t.i.w. 5 weeks, FIG. 1A) is “not only prevented additional weight gain in the mice on HFD, but also triggered a gradual weight loss”. Moreover, the “difference in body weight vs control-vehicle-treated mice on HFD at the time of euthanasia” value in data set [1] (HFD-fed mice, 5 then 10 mg/kg p.o. t.i.w., 8 weeks, FIG. 1B) is listed as approximately 20%. In data set [1] (setting [4]), the behaviors or activities entry is listed as “No changes in behaviors or activities were observed” and the side effects result is “temporary, self-resolving, mild diarrhea seen in a couple of mice at the initiation of drug treatment”. Besides, in the data set with leptin, the serum leptin levels entry was “decrease”. Besides, the “epididymal fat pad weights” value in data set [2] (FIG. 3A) was “markedly decreased”. For the same compound, the “epididymal fat/body weight ratio” value in data set [2] (FIG. 3B) is “markedly decreased”. Further, the “unilateral (inguinal) fat pad weights” value in data set [2] (FIG. 3C) was “markedly decreased”. Besides, the “inguinal fat/body weight ratio” value in data set [2] (FIG. 3D) is listed as “markedly decreased”. For the same compound, in data set [3], the “fecal triglyceride content normalized to fecal mass” value is on record as “little difference”.

(Values after patent publication US12390460B2, “Treatment for obesity” (1GLOBE BIOMEDICAL CO., LTD., priority 2018, dated 2025).)
